Measured values: patent US20070049599A1, “Use of bh4 for the treatment of respiratory diseases” (Altana Pharma AG, priority 2003, published 2007)

Legend:
human iNOS [1] = target: T1, human iNOS (Homo sapiens, UniProt P35228); assay: Superoxide production from recombinant BH4-free and arginine-free human iNOS (ESR, CPH spin trap); format: biochemical; design: made in house; host or cells: E. coli; conditions: incubation with arginine alone, FIG. 3b
Method: Recombinant human iNOS was overexpressed in E. coli and purified using an ADP sepharose column and subsequently a Superdex column to yield BH4free and arginine-free iNOS. 1 μg of human iNOS was incubated together with 200 μM NADPH and 1 mM CPH. After incubation at 37° C. for 60 min the superoxide produced was measured as stable CPH radical in a Bruker e-scan device via electron spin resonance spectroscopy (ESR).

human iNOS [2] = target: T1, human iNOS; assay: Promotion of NO synthesis in DAHP-pretreated HEK293iNOS cells (Griess assay); format: cell-based; conditions: HEK293iNOS cells pretreated with 10 mM DAHP, increasing concentrations, concentration-dependent, FIG. 2
Method: HEK293 cells stably transfected with human iNOS under the transcriptional control of a PonA-inducible promoter were treated with 10 mM DAHP (diaminohydroxypyridin), an inhibitor of GTP cyclohydrolase (Xie et al., J. Biol. Chem. 273, 21091-21098, 1998), to block endogenous production of tetrahydrobiopterin. After stimulating iNOS expression with […] PonA for 24 h and concomitant treatment with 10 mM DAHP increasing concentrations of BH4 or sepiapterin were added and the NO production was measured using the Griess assay to analyse the stable NO products nitrite and nitrate. Nitrate was reduced to nitrite by nitrate reductase and its absorption was determined at 544 nm in a Wallac spectrophotometer.

[3] = tested on: EA.hy926 endothelial cells; assay: Conversion of BH4 derivatives into BH4 by endothelial cells (intracellular biopterin content by HPLC); format: cell-based; conditions: 100 μM, FIG. 1
Method: Endothelial cells (HUVEC and ERhy926) were cultivated in the appropriate culture medium and treated with sepiapterin and BH4 (100 μM each) respectively, for the indicated time periods. After excess wash steps using PBS the cells were lysed and the biopterin content was analysed by reversed phase HPLC with fluorescence detection (excitation: 350 nm, emission: 450 nm) after iodine reduction and semi-purification on Dowex beads as described in detail in Hesslinger et al., J. Biol. Chem. 273, 21616-21622, 1998.

| SMILES | reduction of superoxide production (human iNOS [1]) [%] | NO synthesis from iNOS (nitrite/nitrate, Griess assay) (human iNOS [2]) | conversion of exogenous compound into intracellular biopterin [3] |
| --- | --- | --- | --- |
| N=C(N)NCCC[C@H](N)C(=O)O [arginine] | 50 |  |  |
| C[C@H](O)C(=O)C1=Nc2c(nc(N)[nH]c2=O)NC1 [sepiapterin] |  | promoted NO synthesis | effectively converted into intracellular biopterin within a few minutes |
